Data on 21 compounds can be found in patent US4820834A, “Benzodiazepine analogs” (priority 1987, dated 1989).

The target of one assay is T1, CCK receptor (pancreas) (Rattus norvegicus, UniProt P30551).
T1 construct: The whole pancreas was dissected free of fat tissue and was homogenized; from tissue; host or cells: rat pancreas membranes (Sprague-Dawley)
T1 sequence (P30551 1-444): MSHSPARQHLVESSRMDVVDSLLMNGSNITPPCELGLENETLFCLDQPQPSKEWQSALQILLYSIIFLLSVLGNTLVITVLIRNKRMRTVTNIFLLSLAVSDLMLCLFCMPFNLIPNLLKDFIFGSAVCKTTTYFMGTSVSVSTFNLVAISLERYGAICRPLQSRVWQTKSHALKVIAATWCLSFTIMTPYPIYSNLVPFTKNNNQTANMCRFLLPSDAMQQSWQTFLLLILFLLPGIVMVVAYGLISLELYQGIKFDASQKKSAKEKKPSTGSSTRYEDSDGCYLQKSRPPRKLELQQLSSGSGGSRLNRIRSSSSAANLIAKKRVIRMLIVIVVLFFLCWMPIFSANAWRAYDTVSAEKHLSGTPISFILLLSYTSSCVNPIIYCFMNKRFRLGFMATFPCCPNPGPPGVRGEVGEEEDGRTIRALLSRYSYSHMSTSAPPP
The assay is described as follows: CCK Receptor Binding (Pancreas): inhibition of ^125 I-CCK-33 binding. Also on record: species or system Male Sprague-Dawley rats. The procedure, abridged: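 Rat (male Sprague-Dawley) pancreatic membranes in 50 mM Tris HCl pH 7.7 with DTT, bacitracin, PMSF and o-phenanthroline; ^125I-Bolton Hunter-labelled CCK-33 as radioligand. Incubation 30 min at 37° C, separation by centrifugation, pellet gamma-counted; Scatchard analysis by diluting ^125I-CCK-33 with increasing CCK-33.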

In assay [1] the target is T2, Gastrin receptor (gastric glands) (Cavia porcellus, UniProt H0VZC5).
T2 construct: The washed guinea pig gastric glands prepared as above were resuspended; from tissue; host or cells: guinea pig gastric mucosal glands (male Hartley)
T2 sequence (H0VZC5 1-426): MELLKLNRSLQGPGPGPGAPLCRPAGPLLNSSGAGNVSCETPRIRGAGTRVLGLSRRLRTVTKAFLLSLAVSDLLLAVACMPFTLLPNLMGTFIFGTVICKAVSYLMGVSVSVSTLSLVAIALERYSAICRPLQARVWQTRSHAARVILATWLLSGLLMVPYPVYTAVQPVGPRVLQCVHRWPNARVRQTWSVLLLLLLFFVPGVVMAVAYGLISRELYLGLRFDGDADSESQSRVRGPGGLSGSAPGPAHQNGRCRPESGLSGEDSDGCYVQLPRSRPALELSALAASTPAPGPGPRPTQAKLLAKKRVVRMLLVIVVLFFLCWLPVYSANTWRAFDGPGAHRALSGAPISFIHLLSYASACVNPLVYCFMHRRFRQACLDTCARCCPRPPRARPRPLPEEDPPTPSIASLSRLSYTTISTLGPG
The assay is described as follows: Gastrin Receptor Binding in Guinea Pig Gastric Glands. Also on record: species or system guinea pig (male Hartley). The note with it: 25° C., 30 minutes.

Assay [2] has as its target T3, CCK receptor (brain, cerebral cortex) (Cavia porcellus, UniProt H0VZC5).
T3 construct: Cerebral cortex was dissected and used as a receptor source; from tissue; host or cells: guinea pig cerebral cortex membranes (male Hartley)
T3 sequence (H0VZC5 1-426): T2 sequence (H0VZC5 1-426)
The assay is described as follows: biochemical. Type of assay: binding, Male Hartley guinea pigs. In outline:
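Guinea pig cerebral cortex homogenate as receptor source, with radiolabeled CCK-33 in HEPES buffer containing MgCl2, bacitracin, EGTA and 0.4% BSA. Incubation 2 h at 25°C; bound ligand pelleted by centrifugation and gamma-counted.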

Setting [3] is: rat pancreas membranes, ^125 I-CCK-33, 37° C., 30 minutes; read-out: IC50 ^125 I-CCK Pancreas.
Setting [4] is: ^125 I-gastrin, read-out: IC50 ^125 I-Gastrin Gastric Glands.
The mark [5] stands for this setting: IC50 ^125 I-CCK Brain, guinea pig cerebral cortex, ^125 I-CCK-33, 25° C., 2 hours.
Where [6] appears, read: IC50 ^125 I-CCK Pancreas, rat pancreas membranes, ^125 I-CCK-33, 37° C., 30 minutes.
The mark [7] stands for this setting: guinea pig cerebral cortex, ^125 I-CCK-33, 25° C., 2 hours; read-out: IC50 ^125 I-CCK Brain.
Setting [8] is: IC50 ^125 I-Gastrin Gastric Glands.

Read-outs that look alike come from different tables or passages of the source. Bounds are passed on as bounds.

With `CN1C(=O)[C@@H](NC(=O)c2cc3ccccc3[nH]2)N=C(c2ccccc2F)c2ccccc21` [Example 88, 3(S)-(+)-1,3-Dihydro-5-(2-fluorophenyl)-3-(2-indole-carbonylamino)-1-methyl-2H-1,4-benzodiazepin-2-one], the IC50 (as a rule, the concentration that inhibits the measured activity by half) on CCK receptor (pancreas) (setting [3]) turned out to be 0.6 nM; in assay [1] (setting [4]) it was 27 nM; in assay [2] (setting [5]), 300 nM.

For `COc1cccc(CC(=O)N[C@@H]2N=C(c3ccccc3)c3ccccc3N(C)C2=O)c1` [Example 269, (R)-N-(2,3-Dihydro-1-methyl-2-oxo-5-phenyl-1H-1,4-benzodiazepin-3-yl)-3-methoxybenzenacetamide], the concentration for half-maximal inhibition (IC50) on CCK receptor (pancreas) (setting [6]) worked out at 45000 nM; in assay [1] (setting [4]), 450 nM; in assay [2] (setting [7]), 690 nM.

On to `CN1C(=O)[C@H](NC(=O)Nc2ccc(Cl)cc2)N=C(c2ccccc2)c2ccccc21` [Example 234, (R)-N-(4-Chlorophenyl)-N'-(2,3-dihydro-1-methyl-2-oxo-5-phenyl-1H-1,4-benzodiazepin-3-yl)-Urea], for which the IC50 turned out to be 1100 nM on CCK receptor (pancreas) (setting [3]), 12 nM in assay [1] (setting [4]) and 5.5 nM in assay [2] (setting [5]).

In the case of `CN1C(=O)[C@H](NC(=O)c2ccccc2Cl)N=C(c2ccccc2F)c2ccccc21` [Example 172, 3(R)-(+)-3-(2-Chlorobenzoylamino)-1,3-dihydro-5-(2-fluorophenyl)-1-methyl-2H-1,4-benzodiazepin-2-one], the results for the IC50 (at CCK receptor (pancreas) (setting [3]); in assay [1] (setting [8]); in assay [2] (setting [5])) were 3400 nM, 3700 nM and 16000 nM, respectively.

For `CCOC(=O)CN1C(=O)C(NC(=O)OCc2ccccc2)N=C(c2ccccc2)c2ccccc21` (stereo not drawn) [Example 209, 2,3-Dihydro-2-oxo-5-phenyl-3-(((phenylmethoxy)carbonyl)amino)-1H-1,4-benzodiazepine-1-acetic acid ethyl ester], the values for the IC50 (at CCK receptor (pancreas) (setting [6]); in assay [1] (setting [4]); in assay [2] (setting [7])) were 2200 nM, 300 nM and 300 nM, respectively.

For `CN1C(=O)[C@@H](NC(=O)c2ccc(I)cc2)N=C(c2ccccc2F)c2ccccc21` [Example 159, 3(S)-(+)-1,3-Dihydro-5-(2-fluorophenyl)-3-(4-iodobenzoylamino)-1-methyl-2H-1,4-benzodiazepin-2-one], the values for the IC50 (on CCK receptor (pancreas) (setting [6]); in assay [1] (setting [4]); in assay [2] (setting [5])) were 3.4 nM, 530 nM and 3000 nM, respectively.

Consider `O=C(OC1N=C(c2ccccc2F)c2ccccc2NC1=O)c1ccc(Cl)cc1` (racemic) [Example 179, 1,3-Dihydro-5-(2-fluorophenyl)-3(RS)-(4-chlorobenzoyl)oxy-2H-1,4-benzodiazepin-2-one], for which the values for the half-maximal inhibitory concentration (IC50) (at CCK receptor (pancreas) (setting [6]); in assay [1] (setting [8]); in assay [2] (setting [5])) were 4400 nM, 18000 nM and 3600 nM, respectively.

For the compound `CCCCCc1ccc(C(=O)N[C@H]2N=C(c3ccccc3F)c3ccccc3N(C)C2=O)cc1` [Example 228, (S)-N-(5-(2-Fluorophenyl)-2,3-dihydro-1-methyl-2-oxo-1H-1,4-benzodiazepin-3-yl)-4-pentylbenzamide], the results for the IC50 (at CCK receptor (pancreas) (setting [6]); in assay [1] (setting [8]); in assay [2] (setting [5])) were 49 nM, 60000 nM and 100000 nM, respectively.

As for `CN1C(=O)[C@@H](N)N=C(c2ccccc2)c2ccccc21` [Example 85a, 3(S)-(-)-3-Amino-1,3-dihydro-1-methyl-5-phenyl-2H-1,4-benzodiazepin-2-one], the concentration for half-maximal inhibition (IC50) at CCK receptor (pancreas) (setting [3]) was 100000 nM; in assay [1] (setting [8]), above 100000 nM; in assay [2] (setting [5]), above 100000 nM.

For `CN1C(=O)C(O)(C(=O)c2ccsc2)N=C(c2ccccc2)c2ccccc21` (racemic) [Example 53a, 1,3-Dihydro-3-(RS)-hydroxy-1-methyl-5-phenyl-3-(3'-thienoyl)-2H-1,4-benzodiazepin-2-one], the IC50 amounted to 100000 nM at CCK receptor (pancreas) (setting [6]), 850 nM in assay [1] (setting [4]) and 4200 nM in assay [2] (setting [7]).

As to `CN1C(=O)[C@@H](NC(=O)Nc2ccccc2Cl)N=C(c2ccccc2)c2ccccc21` [Example 276, (S)-N-(2,3-Dihydro-1-methyl-2-oxo-5-phenyl-1H-1,4-benzodiazepin-3-yl)-N'-(2-chlorophenyl)-urea], the 50% inhibitory concentration (IC50) on CCK receptor (pancreas) (setting [6]) turned out to be 0.39 nM; in assay [1] (setting [4]), 240 nM; in assay [2] (setting [7]), 280 nM.

For `CN1C(=O)[C@H](NC(=O)c2ccc(C(F)(F)F)cc2)N=C(c2ccccc2)c2ccccc21` [Example 207, (R)-N-(2,3-Dihydro-1-methyl-2-oxo-5-phenyl-1H-1,4-benzodiazepin-3-yl)-4-(trifluoromethyl)-benzamide], the 50% inhibitory concentration (IC50) turned out to be 115000 nM at CCK receptor (pancreas) (setting [3]), 4200 nM in assay [1] (setting [4]) and 3300 nM in assay [2] (setting [5]).

Turning to `Cc1ccc(NC(=O)N[C@@H]2N=C(c3ccccc3)c3ccccc3N(C)C2=O)cc1` [Example 293, (R)-N-(2,3-Dihydro-1-methyl-2-oxo-5-phenyl-1H-1,4-benzodiazepin-3-yl)-N'-(4-methylphenyl)-urea], the figures for the IC50 (on CCK receptor (pancreas) (setting [3]); in assay [1] (setting [8]); in assay [2] (setting [5])) were 3100 nM, 2.5 nM and 6.5 nM, respectively.

In the case of `CN1C(=O)[C@@H](Cc2c[nH]c3ccccc23)N=C(c2ccccc2)c2ccccc21` [Example 210, (R)-1,3-Dihydro-3-(1H-indol-3-ylmethyl)-1-methyl-5-phenyl-2H-1,4-benzodiazepin-2-one], the IC50 at CCK receptor (pancreas) (setting [6]) was found to be 300 nM; in assay [1] (setting [8]), 21000 nM; in assay [2] (setting [5]), 10000 nM.

Turning to `O=C(CNc1ccccc1)NC1N=C(c2ccccc2F)c2ccccc2NC1=O` (racemic) [Example 125, 1,3-Dihydro-3-(RS)-(phenylaminomethylcarbonyl)amino-5-(2-fluorophenyl)-2H-1,4-benzodiazepin-2-one], the IC50 is 900 nM on CCK receptor (pancreas) (setting [6]), above 10000 nM in assay [1] (setting [8]) and 100000 nM in assay [2] (setting [5]).

Regarding `O=C(O)CN1C(=O)C(NC(=O)Nc2ccc(Cl)cc2)N=C(c2ccccc2)c2ccccc21` (stereo not drawn) [Example 202, 3-((((4-Chlorophenyl)amino)carbonyl)amino)-2,3-dihydro-2-oxo-5-phenyl-1H-1,4-benzodiazepine-1-acetic acid], the 50% inhibitory concentration (IC50) at CCK receptor (pancreas) (setting [3]) is 56 nM; in assay [1] (setting [4]), 120 nM; in assay [2] (setting [7]), 72 nM.

As to `CCOC(=O)CN1C(=O)C(NC(=O)Nc2ccc(Cl)cc2)N=C(c2ccccc2F)c2ccccc21` (stereo not drawn) [Example 194, 3-((((4-Chlorophenyl)amino)carbonyl)amino)-5-(2-fluorophenyl)-2,3-dihydro-2-oxo-1H-1,4-benzodiazepin-1-acetic acid ethyl ester], the IC50 on CCK receptor (pancreas) (setting [3]) stood at 220 nM; in assay [1] (setting [4]), 4 nM; in assay [2] (setting [7]), 1.2 nM.

In the case of `Cc1ccc(S(=O)(=O)NC2N=C(c3ccccc3F)c3ccccc3NC2=O)cc1` (racemic) [Example 112, 1,3-Dihydro-3-(RS)-(4-methylphenylsulfonyl)amino-5-(2-fluorophenyl)-2H-1,4-benzodiazepin-2-one], the IC50 on CCK receptor (pancreas) (setting [6]) is 24000 nM; in assay [1] (setting [4]), above 10000 nM; in assay [2] (setting [7]) it was above 50000 nM.

Consider `O=C1Nc2ccccc2C(c2ccccc2F)=N[C@@H]1CC1CNc2ccccc21` (stereo partly drawn) [Example 10], for which the IC50 was 16700 nM on CCK receptor (pancreas) (read-out: IC50 ^125 I-CCK Pancreas; rat pancreas membranes, ^125 I-CCK-33, 37° C., 30 minutes); 47000 nM in assay [1] (setting [4]); above 100000 nM in assay [2] (read-out: IC50 ^125 I-CCK Brain; guinea pig cerebral cortex, ^125 I-CCK-33, 25° C., 2 hours).

Turning to `O=CNc1ccccc1C(=O)CC1N=C(c2ccccc2F)c2ccccc2NC1=O` (stereo not drawn) [Example 104, 1,3-Dihydro-5-(2-fluorophenyl)-3-(2-formylaminobenzoylmethyl)-2H-1,4-benzodiazepin-2-one], the IC50 on CCK receptor (pancreas) (setting [6]) is 300 nM; in assay [1] (setting [4]), above 100000 nM; in assay [2] (setting [7]), above 100000 nM.

For `COc1cc(NC(=O)NC2N=C(c3ccccc3)c3ccccc3N(C)C2=O)cc(OC)c1` (stereo not drawn) [Example 274], the half-inhibitory concentration (IC50) on CCK receptor (pancreas) (setting [3]) is 310 nM; in assay [1] (setting [4]), 1600 nM; in assay [2] (setting [7]), 2300 nM.
